Reference: patent US20240092800A1, “USP13 INHIBITORS AND METHODS OF USE THEREOF” (GEORGETOWN UNIVERSITY, priority 2021, published 2024)

Key:
[1] = test system: alpha-synuclein ubiquitination; experiment: Alpha-synuclein ubiquitination in TgA53T mice (IP/WB, immunostaining co-localization); type: in vivo, mouse; settings: midbrain extracts, 40 mg/kg compared to DMSO and 10 mg/kg
Experimental: Immunoprecipitation (IP). Mouse brain tissues were homogenized in 1×STEN buffer, and the soluble fraction was isolated as indicated above. The lysates were pre-cleaned with immobilized recombinant protein A/G agarose (Santa Crutz, sc-2003, Dallas, TX, USA) and centrifuged at 2500×g for 1 min at 4° C. The supernatant was recovered and quantified by protein assay, and a total of 300 μg protein was incubated overnight at 4° C. with primary anti-alpha-synuclein (1:200, Thermofisher, AHB0261) mouse antibodies or anti-ubiquitin (1:100) (Thermo Fisher, PA3-16717, Rockford, IL, USA) antibodies in the presence of sepharose G and an IgG control with primary antibodies. The immunoprecipitates were collected by centrifugation at 2500×g for 3 min at 4° C., washed 5× in PBS, with spins of 3 min, 2500×g using detergent-free buffer for the last washing step, and the proteins were eluted according to Pierce instructions (Pierce #20365, Rockford, IL, USA). […]
Immunohistochemistry was performed on the 20 μm thick brain sections for evaluation of ubiquitination of alpha-synuclein. […] The optic densitometry of co-localization of ubiquitin with alpha-synuclein was measured using Image J. Tyrosine hydroxylase (TH) is the limiting enzyme in DA synthesis, so probing for TH+ neurons will help to evaluate the status of DA producing neurons in the SN and their terminals in the striatum. […]

[2] = test system: murine tau; experiment: p-Tau ser396 ELISA in TgA53T mice; type: in vivo, mouse; settings: 10 mg/Kg or 40 mg/Kg I.P. daily for 7 days
Experimental: (§1) A total of 25 μL soluble protein was incubated overnight at 4° C. with 25 μL of a mixed bead solution. After washing, samples were incubated with 25 μL detection antibody solution for 1.5 hours at room temperature. Streptavidin-phycoerythrin (25 μL) was added to each well containing the 25 μL of detection antibody solution. Samples were then washed and suspended in 100 μL of sheath fluid. Samples were then run on MAGPIX with Xponent software. The median fluorescent intensity (MFI) data were analyzed using a 5-parameter logistic or spline curve-fitting method for calculating analyte concentrations in samples. Specific alpha-synuclein ELISAs were performed on tissue soluble extracts from midbrain lysates in 1XSTEN buffer. The ELISA for USP13 (MyBioSource, Cat # MBS9335287), Human alpha-synuclein (Biolegend, Cat #844101) and specific p-Tau ser396 (Invitrogen, KHB7031) were performed on cell or brain tissue extracts as described above according to manufacturers' protocol.

[3] = target: T1, human USP13 (Homo sapiens, UniProt Q92995); experiment: USP13 activity via ELISA in SHSY5Y cells; type: cell-based
T1 construct: USP13 activity via ELISA in human SHSY5Y neuroblastoma cells; endogenous in cells; host or cells: human SH-SY5Y neuroblastoma cells (transiently transfected with human wild-type alpha-synuclein, not with USP13)
T1 sequence (Q92995 1-863): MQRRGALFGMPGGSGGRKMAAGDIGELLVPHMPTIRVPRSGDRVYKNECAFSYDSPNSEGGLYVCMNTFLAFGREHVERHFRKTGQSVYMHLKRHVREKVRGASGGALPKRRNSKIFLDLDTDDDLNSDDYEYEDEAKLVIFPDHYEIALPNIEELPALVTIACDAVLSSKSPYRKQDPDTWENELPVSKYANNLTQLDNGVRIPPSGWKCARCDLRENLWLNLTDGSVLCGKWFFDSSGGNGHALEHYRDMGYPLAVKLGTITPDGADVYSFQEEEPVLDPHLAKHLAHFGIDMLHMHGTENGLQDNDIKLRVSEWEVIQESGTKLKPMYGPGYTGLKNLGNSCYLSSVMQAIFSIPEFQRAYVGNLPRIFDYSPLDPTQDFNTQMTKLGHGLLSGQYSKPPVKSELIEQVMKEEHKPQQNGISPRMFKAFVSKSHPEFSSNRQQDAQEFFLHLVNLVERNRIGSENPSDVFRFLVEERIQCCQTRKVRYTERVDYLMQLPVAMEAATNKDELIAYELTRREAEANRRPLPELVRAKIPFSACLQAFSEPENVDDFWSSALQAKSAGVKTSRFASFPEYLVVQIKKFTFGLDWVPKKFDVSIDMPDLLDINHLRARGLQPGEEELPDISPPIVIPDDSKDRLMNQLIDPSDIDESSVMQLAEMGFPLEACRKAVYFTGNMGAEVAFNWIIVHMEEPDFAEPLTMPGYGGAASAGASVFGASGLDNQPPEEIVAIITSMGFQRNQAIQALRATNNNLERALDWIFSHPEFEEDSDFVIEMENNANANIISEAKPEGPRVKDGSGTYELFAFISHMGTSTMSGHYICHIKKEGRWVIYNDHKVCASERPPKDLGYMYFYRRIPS
Experimental: Cell lines, transfection, and treatment.
as §1
Statistical and Data Analysis. All statistical analyses were performed using GraphPad Prism version 5.0 (GraphPad software, Inc, San Diego, CA, USA). Two-tailed student's t-test was used in comparison of means of two groups. Ordinary one-way analysis of variance (ANOVA) followed by Newman-Keuls or Dunnett comparison post hoc tests were used in comparison of means of multiple groups. Asterisks denote actual p-value significances (*<0.05, **<0.01, ***<0.001 and ****<0.0001), and N is the number of animals or the number of independent experiments (cell culture) per group. Unless otherwise indicated, data are expressed as Mean±SD. IC50 to USP13 levels was also estimated using GraphPad Prism version 5.0 (GraphPad software, Inc, San Diego, CA, USA).

SMILES: Fc1ccc2nccc(OCc3ccccc3)c2c1 [4-(Benzyloxy)-6-fluoroquinoline]
- alpha-synuclein ubiquitination by immunoprecipitation and WB [1]: increased ubiquitination
- murine tau levels (ptau396 ELISA) [2]: no effect
- IC50 ([3]; SHSY5Y cell line, estimated with GraphPad Prism, read-out: IC50 to inhibit USP13 activity): 0.078 µM
- USP13 activity via ELISA ([3]; SHSY5Y cells, 5 hours, concentration range of 1 nM-1 mM): significantly reduce the activity of human USP13
